# Experimental data: patent US20150105252A1, “SUBSTITUTED PYRAZOLES AS HERBICIDES” (E I DU PONT DE NEMOURS AND COMPANY, priority 2013, published 2015)
# How the values were obtained:
# [1] = tested on: johnsongrass; experiment: Test C preemergence; assay type: in vivo, Sorghum halepense; conditions: for Plant response rating (scale of 0 to 100), Johnsongrass: Preemergence, 250 g ai/ha
# Method in brief: (§1)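 Seeds were sown in a loam soil–sand blend and sprayed preemergence with compounds formulated in a non-phytotoxic solvent mixture containing surfactant. Postemergence plants, grown in peat/vermiculite medium to 2–18 cm (1- to 4-leaf stage), received the same formulation. After 13 to 15 days in a greenhouse, injury was rated visually against controls (0 = no effect, 100 = complete control).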
# [2] = tested on: oilseed rape; experiment: Test C preemergence; assay type: in vivo, Brassica napus; conditions: for Plant response rating (scale of 0 to 100), Oilseed Rape: Preemergence, 250 g ai/ha
# Method in brief: as §1
# [3] = tested on: crabgrass, large; experiment: Test C postemergence; assay type: in vivo, Digitaria sanguinalis; conditions: for Plant response rating (scale of 0 to 100 where 0 is no effect and 100 is complete control), Crabgrass, Large: Postemergence, 31 g ai/ha, visually evaluated after 13 to 15 days; for Crabgrass, Large plant response rating / Plant response rating, Crabgrass, Large: postemergence; for Crabgrass, Large plant response rating: 62 g ai/ha, scale 0 to 100
# Method in brief: as §1
# [4] = tested on: blackgrass; experiment: Test C postemergence; assay type: in vivo, Alopecurus myosuroides; conditions: for Plant response rating (scale of 0 to 100 where 0 is no effect and 100 is complete control), Blackgrass: Postemergence, 31 g ai/ha, visually evaluated after 13 to 15 days; for Blackgrass plant response rating / Plant response rating, Blackgrass: postemergence; for Blackgrass plant response rating: 62 g ai/ha, scale 0 to 100
# Method in brief: as §1
# [5] = tested on: velvetleaf; experiment: Test C preemergence; assay type: in vivo, Abutilon theophrasti; conditions: for Plant response rating (scale of 0 to 100), Velvetleaf: Preemergence, 250 g ai/ha
# Method in brief: as §1
# [6] = tested on: lambsquarters; experiment: Test C preemergence; assay type: in vivo, Chenopodium album; conditions: for Plant response rating (scale of 0 to 100), Lambsquarters: Preemergence, 250 g ai/ha
# Method in brief: as §1
# [7] = tested on: johnsongrass; experiment: Test C postemergence; assay type: in vivo, Sorghum halepense; conditions: for Plant response rating (scale of 0 to 100 where 0 is no effect and 100 is complete control), Johnsongrass: Postemergence, 31 g ai/ha, visually evaluated after 13 to 15 days; for Johnsongrass plant response rating / Plant response rating, Johnsongrass: postemergence; for Johnsongrass plant response rating: 62 g ai/ha, scale 0 to 100
# Method in brief: as §1
# [8] = tested on: barnyardgrass; experiment: Test C preemergence; assay type: in vivo, Echinochloa crus-galli; conditions: for Plant response rating (scale of 0 to 100), Barnyardgrass: Preemergence, 250 g ai/ha
# Method in brief: as §1
# [9] = tested on: wheat; experiment: Test C preemergence; assay type: in vivo, Triticum aestivum; conditions: for Plant response rating (scale of 0 to 100), Wheat: Preemergence, 250 g ai/ha
# Method in brief: as §1
# [10] = tested on: crabgrass, large; experiment: Test A postemergence; assay type: in vivo, Digitaria sanguinalis
# Method in brief: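 Visual injury ratings, 0 = no effect to 100 = complete control, taken about 10 days after treatment against untreated controls. Test chemicals, in a non-phytotoxic surfactant-containing solvent, were sprayed onto soil preemergence or onto one- to two-leaf plants (2–10 cm) postemergence, in loam–sand soil under greenhouse conditions.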
# [11] = tested on: galium; experiment: Test C preemergence; assay type: in vivo, Galium aparine; conditions: for Plant response rating (scale of 0 to 100), Galium: Preemergence, 250 g ai/ha
# Method in brief: as §1
# [12] = tested on: chickweed; experiment: Test C postemergence; assay type: in vivo, Stellaria media; conditions: for Plant response rating (scale of 0 to 100 where 0 is no effect and 100 is complete control), Chickweed: Postemergence, 31 g ai/ha, visually evaluated after 13 to 15 days; for Chickweed plant response rating / Plant response rating, Chickweed: postemergence; for Chickweed plant response rating: 62 g ai/ha, scale 0 to 100
# Method in brief: as §1
# [13] = tested on: velvetleaf; experiment: Test C postemergence; assay type: in vivo, Abutilon theophrasti; conditions: for Plant response rating (scale of 0 to 100 where 0 is no effect and 100 is complete control), Velvetleaf: Postemergence, 31 g ai/ha, visually evaluated after 13 to 15 days; for Velvetleaf plant response rating / Plant response rating, Velvetleaf: postemergence; for Velvetleaf plant response rating: 62 g ai/ha, scale 0 to 100
# Method in brief: as §1
# [14] = tested on: soybean; experiment: Test C preemergence; assay type: in vivo, Glycine max; conditions: for Plant response rating (scale of 0 to 100), Soybean: Preemergence, 250 g ai/ha
# Method in brief: as §1
# [15] = tested on: morningglory; experiment: Test C postemergence; assay type: in vivo, Ipomoea coccinea; conditions: for Plant response rating (scale of 0 to 100 where 0 is no effect and 100 is complete control), Morningglory: Postemergence, 31 g ai/ha, visually evaluated after 13 to 15 days; for Morningglory plant response rating / Plant response rating, Morningglory: postemergence; for Morningglory plant response rating: 62 g ai/ha, scale 0 to 100
# Method in brief: as §1
# [16] = preemergence, 31 g ai/ha, visual rating, scale 0 to 100 (0 no effect, 100 complete control), 13 to 15 days
# [17] = preemergence, 62 g ai/ha, scale 0 to 100 (0 no effect, 100 complete control), 13 to 15 days
# [18] = preemergence, 125 g ai/ha, scale 0 to 100, 0 is no effect, 100 is complete control
# [19] = 250 g ai/ha, scale 0 to 100 (0 no effect, 100 complete control)
# [20] = 125 g ai/ha, scale 0 to 100, 0 no effect, 100 complete control
# [21] = preemergence, 31 g ai/ha, scale 0 to 100 (0 no effect, 100 complete control), 13 to 15 days
# [22] = postemergence, 125 g ai/ha, about 10 days, visual rating on 0 to 100 scale (0 no effect, 100 complete control)
# [23] = preemergence, 125 g ai/ha, 13 to 15 days, scale 0 to 100, 0 = no effect, 100 = complete control
compound,measurement,setting,value
CCCc1cc(C(=O)NCC(F)(F)F)nn1Cc1ccnc(C(F)(F)F)c1 [Compound 105],"Plant response rating (scale of 0 to 100), Johnsongrass",[1],100
same,Johnsongrass plant response rating,[1]; [16],80
same,Johnsongrass plant response rating,[1]; [17],95
same,Johnsongrass plant response rating,[1]; [18],100
same,"Plant response rating (scale of 0 to 100), Oilseed Rape",[2],100
same,Oilseed Rape plant response rating,[2]; [16],95
same,Oilseed Rape plant response rating,[2]; [17],95
same,Oilseed Rape plant response rating,[2]; [18],95
same,"Plant response rating (scale of 0 to 100 where 0 is no effect and 100 is complete control), Crabgrass, Large",[3],35
same,"Crabgrass, Large plant response rating",[3],45
same,"Plant response rating, Crabgrass, Large",[3]; [19],95
same,"Plant response rating, Crabgrass, Large",[3]; [20],90
same,"Plant response rating (scale of 0 to 100 where 0 is no effect and 100 is complete control), Blackgrass",[4],10
same,Blackgrass plant response rating,[4],30
same,"Plant response rating, Blackgrass",[4]; [19],60
same,"Plant response rating, Blackgrass",[4]; [20],35
same,"Plant response rating (scale of 0 to 100), Velvetleaf",[5],100
same,Velvetleaf plant response rating,[5]; [16],98
same,Velvetleaf plant response rating,[5]; [17],100
same,Velvetleaf plant response rating,[5]; [18],100
same,"Plant response rating (scale of 0 to 100), Lambsquarters",[6],100
same,Lambsquarters plant response rating,[6]; [16],85
same,Lambsquarters plant response rating,[6]; [17],100
same,Lambsquarters plant response rating,[6]; [18],100
same,"Plant response rating (scale of 0 to 100 where 0 is no effect and 100 is complete control), Johnsongrass",[7],5
same,Johnsongrass plant response rating,[7],35
same,"Plant response rating, Johnsongrass",[7]; [19],75
same,"Plant response rating, Johnsongrass",[7]; [20],45
same,"Plant response rating (scale of 0 to 100), Barnyardgrass",[8],100
same,Barnyardgrass plant response rating,[8]; [21],98
same,Barnyardgrass plant response rating,[8]; [17],100
same,Barnyardgrass plant response rating,[8]; [18],100
same,"Plant response rating (scale of 0 to 100), Wheat",[9],90
same,Wheat plant response rating,[9]; [16],75
same,Wheat plant response rating,[9]; [17],85
same,Wheat plant response rating,[9]; [18],90
same,"Crabgrass, Large plant response rating","[10]; Postemergence, 500 g ai/ha, visual rating after approx. 10 days, 0 to 100 scale (0 no effect, 100 complete control)",100
same,"Crabgrass, Large plant response rating",[10]; [22],100
same,"Plant response rating (scale of 0 to 100), Galium",[11],100
same,Galium plant response rating,[11]; [16],100
same,Galium plant response rating,[11]; [17],100
same,Galium plant response rating,[11]; [18],100
same,"Plant response rating (scale of 0 to 100 where 0 is no effect and 100 is complete control), Chickweed",[12],90
same,Chickweed plant response rating,[12],90
same,"Plant response rating, Chickweed",[12]; [19],95
same,"Plant response rating, Chickweed",[12]; [20],95
same,"Plant response rating (scale of 0 to 100 where 0 is no effect and 100 is complete control), Velvetleaf",[13],40
same,Velvetleaf plant response rating,[13],55
same,"Plant response rating, Velvetleaf",[13]; [19],75
same,"Plant response rating, Velvetleaf",[13]; [20],70
same,"Plant response rating (scale of 0 to 100), Soybean",[14],95
same,Soybean plant response rating,[14]; [16],70
same,Soybean plant response rating,[14]; [17],70
same,Soybean plant response rating,[14]; [18],95
same,"Plant response rating (scale of 0 to 100 where 0 is no effect and 100 is complete control), Morningglory",[15],80
same,Morningglory plant response rating,[15],80
same,"Plant response rating, Morningglory",[15]; [19],95
same,"Plant response rating, Morningglory",[15]; [20],85
CCCc1cc(C(=O)NCC)nn1Cc1cc(C(F)(F)F)nn1C [Compound 129],"Plant response rating (scale of 0 to 100), Johnsongrass",[1],100
same,Johnsongrass plant response rating,[1]; [16],10
same,Johnsongrass plant response rating,[1]; [17],70
same,"Plant response rating, Johnsongrass",[1]; [23],98
same,"Plant response rating (scale of 0 to 100), Oilseed Rape",[2],100
same,Oilseed Rape plant response rating,[2]; [16],95
same,Oilseed Rape plant response rating,[2]; [17],95
same,"Plant response rating, Oilseed Rape",[2]; [23],100
same,"Plant response rating (scale of 0 to 100 where 0 is no effect and 100 is complete control), Crabgrass, Large",[3],10
same,"Crabgrass, Large plant response rating",[3],10
same,"Plant response rating, Crabgrass, Large",[3]; [19],20
same,"Plant response rating, Crabgrass, Large",[3]; [20],35
same,"Plant response rating (scale of 0 to 100 where 0 is no effect and 100 is complete control), Blackgrass",[4],10
same,Blackgrass plant response rating,[4],5
same,"Plant response rating, Blackgrass",[4]; [19],20
same,"Plant response rating, Blackgrass",[4]; [20],35
same,"Plant response rating (scale of 0 to 100), Velvetleaf",[5],100
same,Velvetleaf plant response rating,[5]; [16],55
same,Velvetleaf plant response rating,[5]; [17],100
same,"Plant response rating, Velvetleaf",[5]; [23],100
same,"Plant response rating (scale of 0 to 100), Lambsquarters",[6],100
same,Lambsquarters plant response rating,[6]; [16],98
same,Lambsquarters plant response rating,[6]; [17],100
same,"Plant response rating, Lambsquarters",[6]; [23],100
same,"Plant response rating (scale of 0 to 100 where 0 is no effect and 100 is complete control), Johnsongrass",[7],5
same,Johnsongrass plant response rating,[7],10
same,"Plant response rating, Johnsongrass",[7]; [19],10
same,"Plant response rating, Johnsongrass",[7]; [20],10
same,"Plant response rating (scale of 0 to 100), Barnyardgrass",[8],100
same,Barnyardgrass plant response rating,[8]; [21],95
same,Barnyardgrass plant response rating,[8]; [17],100
same,"Plant response rating, Barnyardgrass",[8]; [23],100
same,"Plant response rating (scale of 0 to 100), Wheat",[9],90
same,Wheat plant response rating,[9]; [16],0
same,Wheat plant response rating,[9]; [17],35
same,"Plant response rating, Wheat",[9]; [23],85
same,"Crabgrass, Large plant response rating","[10]; Postemergence, 500 g ai/ha, 0 to 100 scale (0 no effect, 100 complete control)",90
same,"Crabgrass, Large plant response rating",[10]; [22],80
same,"Plant response rating (scale of 0 to 100), Galium",[11],100
same,Galium plant response rating,[11]; [16],100
same,Galium plant response rating,[11]; [17],100
same,"Plant response rating, Galium",[11]; [23],95
same,"Plant response rating (scale of 0 to 100 where 0 is no effect and 100 is complete control), Chickweed",[12],50
same,Chickweed plant response rating,[12],70
same,"Plant response rating, Chickweed",[12]; [19],100
same,"Plant response rating, Chickweed",[12]; [20],80
same,"Plant response rating (scale of 0 to 100 where 0 is no effect and 100 is complete control), Velvetleaf",[13],25
same,Velvetleaf plant response rating,[13],65
same,"Plant response rating (scale of 0 to 100), Soybean",[14],98
same,Soybean plant response rating,[14]; [16],40
same,Soybean plant response rating,[14]; [17],55
same,"Plant response rating, Soybean",[14]; [23],98
same,"Plant response rating (scale of 0 to 100 where 0 is no effect and 100 is complete control), Morningglory",[15],80
same,Morningglory plant response rating,[15],100
same,"Plant response rating, Morningglory",[15]; [19],100
same,"Plant response rating, Morningglory",[15]; [20],100
